# Organism: Rattus norvegicus
# Assay: DrugMatrix - Regimen: Daily Repeat
# Format: toxicity, organism-based, Sprague-Dawley
# Parameters: regimen Daily Repeat, gender Male, age 6-8 weeks
# Conditions: in vivo, sc, […], route mini-PUMP - SUBCUTANEOUS, dose level High, vehicle 100 % SALINE; for ABSOLUTE LYMPHOCYTE / ABSOLUTE MONOCYTE / BASOPHIL / EOSINOPHIL / ERYTHROCYTE COUNT / HEMATOCRIT / HEMOGLOBIN / LEUKOCYTE COUNT / MEAN CORPUSCULAR HEMOGLOBIN / MEAN CORPUSCULAR HEMOGLOBIN CONCENTRATION / MEAN CORPUSCULAR VOLUME / MONOCYTE / NEUTROPHIL / PLATELET COUNT / ABSOLUTE BASOPHIL / ABSOLUTE EOSINOPHIL / ABSOLUTE SEGMENTED NEUTROPHIL / NUCLEATED RED BLOOD CELLS: tissue Blood
# [1] = 0.5 mg/kg, tissue Plasma, time 14 day
# [2] = 72 h, dose 0.72 mg/Kg, time 3 day
# [3] = 72 h, tissue Plasma, dose 0.72 mg/Kg, time 3 day
# [4] = 120 h, dose 0.72 mg/Kg, time 5 day
# [5] = 120 h, tissue Plasma, dose 0.72 mg/Kg, time 5 day
# [6] = tissue Plasma, dose 0.72 mg/Kg, time 14 day
smiles,measurement,setting,value
CC[C@H](C)[C@H](NC(=O)[C@H](Cc1ccc(O)cc1)NC(=O)[C@@H](NC(=O)[C@H](CCCNC(=N)N)NC(=O)[C@@H](N)CC(=O)O)C(C)C)C(=O)N[C@@H](Cc1cnc[nH]1)C(=O)N1CCC[C@H]1C(=O)N[C@@H](Cc1ccccc1)C(=O)O [ANGIOTENSIN II],ABSOLUTE LYMPHOCYTE,"0.5 mg/kg, time 14 day",9890 cells/µL
same,ABSOLUTE MONOCYTE,"0.5 mg/kg, time 14 day",390 cells/µL
same,BASOPHIL,"0.5 mg/kg, time 14 day",0.3%
same,EOSINOPHIL,"0.5 mg/kg, time 14 day",0.46%
same,ERYTHROCYTE COUNT,"0.5 mg/kg, time 14 day",7.14 x10E6/uL
same,HEMATOCRIT,"0.5 mg/kg, time 14 day",45.2%
same,HEMOGLOBIN,"0.5 mg/kg, time 14 day",14.82 G/DL
same,LEUKOCYTE COUNT,"0.5 mg/kg, time 14 day",13.29 x10E3/uL
same,MEAN CORPUSCULAR HEMOGLOBIN,"0.5 mg/kg, time 14 day",20.82 pg
same,MEAN CORPUSCULAR HEMOGLOBIN CONCENTRATION,"0.5 mg/kg, time 14 day",32.78 G/DL
same,MEAN CORPUSCULAR VOLUME,"0.5 mg/kg, time 14 day",63.38 fL
same,MONOCYTE,"0.5 mg/kg, time 14 day",3.02%
same,NEUTROPHIL,"0.5 mg/kg, time 14 day",20.78%
same,PLATELET COUNT,"0.5 mg/kg, time 14 day",1204.2 x10E3/uL
same,ALBUMIN,[1],3.98 G/DL
same,ALKALINE PHOSPHATASE,[1],370.2 u/L
same,ASPARTATE AMINOTRANSFERASE,[1],94.8 u/L
same,BLOOD UREA NITROGEN,[1],19 mg/dL
same,CARBON DIOXIDE,[1],41 mmol/L
same,CHOLESTEROL,[1],66.8 mg/dL
same,CREATINE PHOSPHOKINASE,[1],324.4 u/L
same,CREATININE,[1],0.74 mg/dL
same,GLUCOSE,[1],138.2 mg/dL
same,LACTATE DEHYDROGENASE,[1],202.4 u/L
same,PHOSPHORUS,[1],9.74 mg/dL
same,POTASSIUM,[1],5.88 MEQ/L
same,SODIUM,[1],149.8 MEQ/L
same,TOTAL BILIRUBIN,[1],0.44 mg/dL
same,URIC ACID,[1],0.7 mg/dL
same,ABSOLUTE BASOPHIL,[2],0 CELLS/uL
same,ABSOLUTE EOSINOPHIL,[2],0 CELLS/uL
same,ABSOLUTE LYMPHOCYTE,[2],11891.33 CELLS/uL
same,ABSOLUTE MONOCYTE,[2],399.33 CELLS/uL
same,ABSOLUTE SEGMENTED NEUTROPHIL,[2],1676 CELLS/uL
same,BASOPHIL,[2],0%
same,EOSINOPHIL,[2],0%
same,ERYTHROCYTE COUNT,[2],6.49 x10E6/uL
same,HEMATOCRIT,[2],38.87%
same,HEMOGLOBIN,[2],14.23 G/DL
same,LEUKOCYTE COUNT,[2],13.97 x10E3/uL
same,MEAN CORPUSCULAR HEMOGLOBIN,[2],21.93 pg
same,MEAN CORPUSCULAR HEMOGLOBIN CONCENTRATION,[2],36.63 G/DL
same,MEAN CORPUSCULAR VOLUME,[2],59.9 fL
same,MONOCYTE,[2],2.67%
same,NEUTROPHIL,[2],12%
same,NUCLEATED RED BLOOD CELLS,[2],0 /100WBC
same,PLATELET COUNT,[2],1285 x10E3/uL
same,ALBUMIN,[3],4.4 G/DL
same,ALKALINE PHOSPHATASE,[3],340 u/L
same,ASPARTATE AMINOTRANSFERASE,[3],83.67 u/L
same,BLOOD UREA NITROGEN,[3],25.67 mg/dL
same,CARBON DIOXIDE,[3],28.67 mmol/L
same,CHOLESTEROL,[3],90.33 mg/dL
same,CREATININE,[3],0.22 mg/dL
same,GLUCOSE,[3],151.33 mg/dL
same,LACTATE DEHYDROGENASE,[3],469.67 u/L
same,PHOSPHORUS,[3],10.63 mg/dL
same,POTASSIUM,[3],5.96 MEQ/L
same,SODIUM,[3],143.73 MEQ/L
same,TOTAL BILIRUBIN,[3],0.2 mg/dL
same,URIC ACID,[3],2 mg/dL
same,ABSOLUTE BASOPHIL,[4],0 CELLS/uL
same,ABSOLUTE EOSINOPHIL,[4],202.67 CELLS/uL
same,ABSOLUTE LYMPHOCYTE,[4],15280.67 CELLS/uL
same,ABSOLUTE MONOCYTE,[4],168.67 CELLS/uL
same,ABSOLUTE SEGMENTED NEUTROPHIL,[4],1814.67 CELLS/uL
same,BASOPHIL,[4],0%
same,EOSINOPHIL,[4],1.33%
same,ERYTHROCYTE COUNT,[4],6.42 x10E6/uL
same,HEMATOCRIT,[4],38.03%
same,HEMOGLOBIN,[4],14.03 G/DL
same,LEUKOCYTE COUNT,[4],17.47 x10E3/uL
same,MEAN CORPUSCULAR HEMOGLOBIN,[4],21.87 pg
same,MEAN CORPUSCULAR HEMOGLOBIN CONCENTRATION,[4],36.9 G/DL
same,MEAN CORPUSCULAR VOLUME,[4],59.23 fL
same,MONOCYTE,[4],1%
same,NEUTROPHIL,[4],10.33%
same,NUCLEATED RED BLOOD CELLS,[4],0 /100WBC
same,PLATELET COUNT,[4],1412 x10E3/uL
same,ALBUMIN,[5],4.23 G/DL
same,ALKALINE PHOSPHATASE,[5],297.67 u/L
same,ASPARTATE AMINOTRANSFERASE,[5],85 u/L
same,BLOOD UREA NITROGEN,[5],26 mg/dL
same,CARBON DIOXIDE,[5],27.33 mmol/L
same,CHOLESTEROL,[5],71 mg/dL
same,CREATININE,[5],0.21 mg/dL
same,GLUCOSE,[5],137 mg/dL
same,LACTATE DEHYDROGENASE,[5],451.33 u/L
same,PHOSPHORUS,[5],11.73 mg/dL
same,POTASSIUM,[5],6.62 MEQ/L
same,SODIUM,[5],144.83 MEQ/L
same,TOTAL BILIRUBIN,[5],0.2 mg/dL
same,URIC ACID,[5],2.03 mg/dL
same,ABSOLUTE BASOPHIL,"dose 0.72 mg/Kg, time 14 day",0 CELLS/uL
same,ABSOLUTE EOSINOPHIL,"dose 0.72 mg/Kg, time 14 day",135.4 CELLS/uL
same,ABSOLUTE LYMPHOCYTE,"dose 0.72 mg/Kg, time 14 day",12908 CELLS/uL
same,ABSOLUTE MONOCYTE,"dose 0.72 mg/Kg, time 14 day",411.8 CELLS/uL
same,ABSOLUTE SEGMENTED NEUTROPHIL,"dose 0.72 mg/Kg, time 14 day",3124.8 CELLS/uL
same,BASOPHIL,"dose 0.72 mg/Kg, time 14 day",0%
same,EOSINOPHIL,"dose 0.72 mg/Kg, time 14 day",0.8%
same,ERYTHROCYTE COUNT,"dose 0.72 mg/Kg, time 14 day",6.73 x10E6/uL
same,HEMATOCRIT,"dose 0.72 mg/Kg, time 14 day",38.96%
same,HEMOGLOBIN,"dose 0.72 mg/Kg, time 14 day",14.36 G/DL
same,LEUKOCYTE COUNT,"dose 0.72 mg/Kg, time 14 day",16.58 x10E3/uL
same,MEAN CORPUSCULAR HEMOGLOBIN,"dose 0.72 mg/Kg, time 14 day",21.34 pg
same,MEAN CORPUSCULAR HEMOGLOBIN CONCENTRATION,"dose 0.72 mg/Kg, time 14 day",36.86 G/DL
same,MEAN CORPUSCULAR VOLUME,"dose 0.72 mg/Kg, time 14 day",57.88 fL
same,MONOCYTE,"dose 0.72 mg/Kg, time 14 day",2.6%
same,NEUTROPHIL,"dose 0.72 mg/Kg, time 14 day",17.8%
same,NUCLEATED RED BLOOD CELLS,"dose 0.72 mg/Kg, time 14 day",0 /100WBC
same,PLATELET COUNT,"dose 0.72 mg/Kg, time 14 day",976.2 x10E3/uL
same,ALBUMIN,[6],4.22 G/DL
same,ALKALINE PHOSPHATASE,[6],388 u/L
same,ASPARTATE AMINOTRANSFERASE,[6],100.6 u/L
same,BLOOD UREA NITROGEN,[6],31 mg/dL
same,CARBON DIOXIDE,[6],34.2 mmol/L
same,CHOLESTEROL,[6],70.6 mg/dL
same,CREATININE,[6],0.27 mg/dL
same,GLUCOSE,[6],174 mg/dL
same,LACTATE DEHYDROGENASE,[6],122.4 u/L
same,PHOSPHORUS,[6],11.92 mg/dL
same,POTASSIUM,[6],5.67 MEQ/L
same,SODIUM,[6],147.54 MEQ/L
same,TOTAL BILIRUBIN,[6],0.2 mg/dL
same,URIC ACID,[6],2.4 mg/dL

# — ChEMBL document CHEMBL3885881, “DrugMatrix”
